Measurements as given in patent publication US5064954A, “Process for producing halomethylcarbapenems” (Shionogi & Co., Ltd., priority 1990, dated 1991).
In brackets after ≈: the same amount, converted by molar mass.

Experiments:
Format in all cases: cell-based
S. aureus Smith = assay: MIC against S. aureus Smith; details: Staphylococcus aureus; Table I; S = S. aureus Smith; inoculum size = 10^5 /ml
Description: |MIC: μg/ml (inoculum size = 10^5 /ml) |S = S. aureus Smith

E. coli EC-14 = assay: MIC against E. coli EC-14; details: Escherichia coli, EC14; Table I; E = E. coli EC-14; inoculum size = 10^5 /ml
Description: |MIC: μg/ml (inoculum size = 10^5 /ml) |E = E. coli EC-14

Ps. aeruginosa SR-24 = assay: MIC against Ps. aeruginosa SR-24; details: Pseudomonas aeruginosa, SR24; Table I; P = Ps. aeruginosa SR-24; inoculum size = 10^5 /ml
Description: |MIC: μg/ml (inoculum size = 10^5 /ml) |P = Ps. aeruginosa SR-24

| SMILES | MIC (S. aureus Smith) | MIC (E. coli EC-14) | MIC (Ps. aeruginosa SR-24) |
| --- | --- | --- | --- |
| CC(O)[C@H]1C(=O)N2C(C(=O)[O-])=C(C[n+]3ccsc3)[C@H](C)[C@H]12 (stereo partly drawn) [Table I No. 1] | 0.025 mg/L (≈ 0.0811 µM) | 0.1 mg/L (≈ 0.324 µM) | 3.13 mg/L (≈ 10.2 µM) |
| CC(O)[C@H]1C(=O)N2C(C(=O)[O-])=C(C[n+]3ccsc3N)[C@H](C)[C@H]12 (stereo partly drawn) [Table I No. 2] | 0.0125 mg/L (≈ 0.0387 µM) | 0.78 mg/L (≈ 2.41 µM) | 6.25 mg/L (≈ 19.3 µM) |
| CC(O)[C@H]1C(=O)N2C(C(=O)[O-])=C(C[n+]3ccccc3)[C@H](C)[C@H]12 (stereo partly drawn) [Table I No. 3, 1β-methyl-2-pyridiniomethyl-6α-(1-hydroxyethyl)-1-carba-2-penem-4-carboxylate] | 0.0125 mg/L (≈ 0.0413 µM) | 0.1 mg/L (≈ 0.331 µM) | 1.56 mg/L (≈ 5.16 µM) |
| Cc1cccc[n+]1CC1=C(C(=O)[O-])N2C(=O)[C@H](C(C)O)[C@H]2[C@H]1C (stereo partly drawn) [Table I No. 4] | 0.025 mg/L (≈ 0.079 µM) | 0.2 mg/L (≈ 0.632 µM) | 3.13 mg/L (≈ 9.89 µM) |
| Cc1ccc[n+](CC2=C(C(=O)[O-])N3C(=O)[C@H](C(C)O)[C@H]3[C@H]2C)c1 (stereo partly drawn) [Table I No. 5] | 0.025 mg/L (≈ 0.079 µM) | 0.2 mg/L (≈ 0.632 µM) | 1.56 mg/L (≈ 4.93 µM) |
| Cc1cc[n+](CC2=C(C(=O)[O-])N3C(=O)[C@H](C(C)O)[C@H]3[C@H]2C)cc1 (stereo partly drawn) [Table I No. 6] | 0.025 mg/L (≈ 0.079 µM) | 0.39 mg/L (≈ 1.23 µM) | 3.13 mg/L (≈ 9.89 µM) |
| CCc1cc[n+](CC2=C(C(=O)[O-])N3C(=O)[C@H](C(C)O)[C@H]3[C@H]2C)cc1 (stereo partly drawn) [Table I No. 7] | 0.025 mg/L (≈ 0.0757 µM) | 0.39 mg/L (≈ 1.18 µM) | 3.13 mg/L (≈ 9.47 µM) |
| CC(O)[C@H]1C(=O)N2C(C(=O)[O-])=C(C[n+]3cccc4c3CCC4)[C@H](C)[C@H]12 (stereo partly drawn) [Table I No. 8] | 0.025 mg/L (≈ 0.073 µM) | 0.2 mg/L (≈ 0.584 µM) | 6.25 mg/L (≈ 18.3 µM) |
| CC(O)[C@H]1C(=O)N2C(C(=O)[O-])=C(C[n+]3cccc(CN)c3)[C@H](C)[C@H]12 (stereo partly drawn) [Table I No. 9] | 0.05 mg/L (≈ 0.151 µM) | 0.78 mg/L (≈ 2.35 µM) | 3.13 mg/L (≈ 9.45 µM) |
| CC(O)[C@H]1C(=O)N2C(C(=O)[O-])=C(C[n+]3ccc(CN)cc3)[C@H](C)[C@H]12 (stereo partly drawn) [Table I No. 10] | 0.05 mg/L (≈ 0.151 µM) | 0.78 mg/L (≈ 2.35 µM) | 3.13 mg/L (≈ 9.45 µM) |
| CC(O)[C@H]1C(=O)N2C(C(=O)[O-])=C(C[n+]3cccc(CNC=O)c3)[C@H](C)[C@H]12 (stereo partly drawn) [Table I No. 11] | 0.05 mg/L (≈ 0.139 µM) | 0.78 mg/L (≈ 2.17 µM) | 3.13 mg/L (≈ 8.71 µM) |
| CCC(=O)c1cc[n+](CC2=C(C(=O)[O-])N3C(=O)[C@H](C(C)O)[C@H]3[C@H]2C)cc1 (stereo partly drawn) [Table I No. 13] | 0.05 mg/L (≈ 0.14 µM) | 0.76 mg/L (≈ 2.12 µM) | 3.13 mg/L (≈ 8.73 µM) |
| CC(O)[C@H]1C(=O)N2C(C(=O)[O-])=C(C[n+]3cccc(C(N)=O)c3)[C@H](C)[C@H]12 (stereo partly drawn) [Table I No. 14] | 0.025 mg/L (≈ 0.0724 µM) | 0.39 mg/L (≈ 1.13 µM) | 1.56 mg/L (≈ 4.52 µM) |
| CC(O)[C@H]1C(=O)N2C(C(=O)[O-])=C(C[n+]3ccc(C(N)=O)cc3)[C@H](C)[C@H]12 (stereo partly drawn) [Table I No. 15] | 0.025 mg/L (≈ 0.0724 µM) | 0.39 mg/L (≈ 1.13 µM) | 1.56 mg/L (≈ 4.52 µM) |
| CC(O)[C@H]1C(=O)N2C(C(=O)[O-])=C(C[n+]3cccc(-c4cnco4)c3)[C@H](C)[C@H]12 (stereo partly drawn) [Table I No. 16] | 0.025 mg/L (≈ 0.0677 µM) | 0.2 mg/L (≈ 0.541 µM) | 1.56 mg/L (≈ 4.22 µM) |
| CC(O)[C@H]1C(=O)N2C(C(=O)[O-])=C(C[n+]3ccc(-c4ncco4)cc3)[C@H](C)[C@H]12 (stereo partly drawn) [Table I No. 17] | 0.025 mg/L (≈ 0.0677 µM) | 0.2 mg/L (≈ 0.541 µM) | 3.13 mg/L (≈ 8.47 µM) |
| CC(O)[C@H]1C(=O)N2C(C(=O)[O-])=C(C[n+]3ccc(-c4cnco4)cc3)[C@H](C)[C@H]12 (stereo partly drawn) [Table I No. 18] | 0.025 mg/L (≈ 0.0677 µM) | 0.39 mg/L (≈ 1.06 µM) | 6.25 mg/L (≈ 16.9 µM) |
| CC(O)[C@H]1C(=O)N2C(C(=O)[O-])=C(C[n+]3cccc(N)c3)[C@H](C)[C@H]12 (stereo partly drawn) [Table I No. 19] | 0.0125 mg/L (≈ 0.0394 µM) | 0.2 mg/L (≈ 0.63 µM) | 1.56 mg/L (≈ 4.92 µM) |
